The text below walks through data of PMC4055595, “Pharmacokinetic Compatibility of Ginsenosides and Schisandra Lignans in Shengmai-san: From the Perspective of P-Glycoprotein” (PLoS ONE, 2014).

Usually AUC stands for concentration integrated over time. The low end stands for less exposure, the high end for more exposure. As usually defined, the Cmax is the peak of the concentration-time curve. By Tmax is commonly meant the time from dosing to the highest level.

Like-named read-outs stand apart in the source and are kept apart here.

One data set deals with Caco-2 cell monolayer. The data set can be described thus: Transport of digoxin and ginsenosides across Caco-2 cell monolayer (efflux ratio). It is filed as in vitro ADME, human. Summed up:
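Caco-2 monolayers (18-21 days, TEER >600 Ω·cm²) preincubated 1.5 h at 37 °C in HBSS pH 7.4 with SLE (2.0 or 10.0 µg/mL) or 1% ethanol on both sides. GE (100 µg/mL) then added apical or basolateral for 2 h; ginsenosides in receiver by LC-MS. ER = Papp B→A / Papp A→B; verapamil 10 µM positive control.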
For orientation: Passage across Caco-2 layers is used to estimate intestinal permeability.

In another data set the test system is P-gp. Also on record: method as in PMID 16557452. The conditions noted are these: Caco-2 cell monolayer; cited from earlier work.
A short description of data set [1]: Rat plasma pharmacokinetics after single-dose vehicle/SLE and digoxin or GE. It is filed as in vivo, Sprague-Dawley rats. The conditions noted are these: rats; for half-life / AUC / Cmax / AUC(0-inf) / MRT inf / Tmax: female, Sprague-Dawley, rat, plasma, po; for half-life / AUC / Cmax / AUC(0-inf) / MRT inf / Tmax / Cl_F_obs: 2 h later digoxin 0.5 mg/kg or GE 120 mg/kg ig; for half-life: read-out: t1/2 (converted); for AUC(0-inf): read-out: AUCINF_obs; for MRT inf: read-out: MRTINF_obs; for Tmax: read-out: Tmax. As to the method:
This study was carried out in strict accordance with the recommendations in the Guide for the Care and Use of Laboratory Animals of the National Institutes of Health. The protocol was approved by the Committee on the Ethics of Animal Experiments of the China Pharmaceutical University. All surgery was performed under sodium pentobarbital anesthesia, and all efforts were made to minimize suffering. Female healthy Sprague-Dawley rats (200±20 g) were purchased from the Laboratory Animal Center of Peking University Health Science Center (Beijing, PR China) and kept in an environmentally controlled breeding room for at least 3 days before experimentation. The rats were fed with standard laboratory food and water and fasted overnight but with free access to water before the test. To evaluate the effect of single treatment of SLE on the pharmacokinetics of ginsenosides, 24 rats were divided into four groups (group I ∼ group IV) averagely. […] In group II (control group): the rats received a single dose of vehicle (0.5% CMC-Na), and digoxin (0.5 mg/kg) was also given to the rats by intragastric administration. […] In group IV (control group): the rats received a single dose of vehicle (0.5% CMC-Na), and GE (120 mg/kg) was also given to the rats by gavage. […] Plasma was obtained by centrifugation at 5000 g for 10 min and stored at −20°C before analysis. The plasma / cell samples were extracted using a liquid–liquid extraction technique. To each tube containing 100 µL plasma, 10 µL internal standard (digoxin, 1.0 µg/mL) and 1.0 mL of n-butanol were added. The mixture was then vortex-extracted for 2 min, and centrifuged for 10 min at 10,000 g. […] The plasma concentration-time curves of ginsenosides in rats were obtained by plotting the mean plasma concentrations versus time. Pharmacokinetic parameters were calculated using the WinNonlin 6.3 program (Pharsight Inc., Mountain View, CA). The elimination half-life (t 1/2) value was calculated as 0.693/β, where β is the elimination rate constant calculated from the terminal linear portion of the log plasma concentration-time curve. The total areas under the plasma concentration- time curve from time 0 to the last quantifiable time point (AUC0-t) and from time 0 to infinity (AUC0-∞) were calculated using the log trapezoidal rule. [drawing 3] The maximum plasma concentrations (C max) for ginsenosides were obtained by visual inspection of the plasma concentration-time curve, whereas the initial drug concentration (the extrapolated concentration at zero time) of the drug after intravenous injection was calculated by back-extrapolation of the plasma concentration-time curve to the y-axis.

The mark [2] stands for this setting: single-dose SLE 500 mg/kg vs vehicle, GE ig.

As for `CC(C)=CCC[C@](C)(O[C@@H]1O[C@H](CO[C@@H]2O[C@H](CO)[C@@H](O)[C@H](O)[C@H]2O)[C@@H](O)[C@H](O)[C@H]1O)[C@H]1CC[C@]2(C)[C@@H]1[C@H](O)C[C@@H]1[C@@]3(C)CC[C@H](O[C@@H]4O[C@H](CO)[C@@H](O)[C@H](O)[C@H]4O[C@@H]4O[C@H](CO)[C@@H](O)[C@H](O)[C@H]4O)C(C)(C)[C@@H]3CC[C@]12C` [Rb1, ginsenoside Rb1], the “Effect of verapamil on efflux ratio” value in the data set on Caco-2 cell monolayer (Caco-2 cells, 10 µM verapamil) was “decreased significantly”. Moreover, the “Effect of SLE on BL-AP transport / efflux ratio” value with Caco-2 cell monolayer (Caco-2 monolayer, SLE 2.0 and 10.0 µg/mL) is recorded as “concentration dependently decrease”. Moreover, the “Transport by P-gp” value with P-gp is recorded as “not be transported by P-gp”. In addition, the half-life in data set [1] (control: single vehicle (0.5% sodium CMC)) was 13.3 ± 2.43 h. Besides, in data set [1] (control: single vehicle), the AUC is 14300 ± 2380 ng·h/mL, the concentration peaked (Cmax) at 491 ± 61.4 ng/mL, the AUC(0-inf) stood at 14400 ± 2470 ng·h/mL and the MRT inf is 23.1 ± 4.31 h. Further, in data set [1] (control: single vehicle), the Tmax was 7.5 ± 1 h and the Cl_F_obs was found to be 0.007 ± 0.001 L/h. Also, in data set [1] (single SLE 500 mg/kg ig), the AUC was determined as 18500 ± 5780 ng·h/mL, the concentration peaked (Cmax) at 651 ± 127 ng/mL, the AUC(0-inf) amounted to 18500 ± 5730 ng·h/mL and the MRT inf turned out to be 23.5 ± 2.68 h. Further, in data set [1] (single SLE 500 mg/kg ig), the Tmax is 11 ± 2 h, the half-life is 11.3 ± 2.74 h and the Cl_F_obs is 0.006 ± 0.002 L/h. For the same compound, in data set [1] (setting [2]), the “Effect of SLE treatment on Cmax” value is “significantly enhanced” and the “Increase of AUC (AUC0-∞) by coadministration of SLE” value stood at 1.29 fold.
